Where two headings read alike, the source gives them in different places.
Target: Nav 1.7 (Homo sapiens (Human), UniProt Q15858)
Assay: in-vitro Nav 1.7 PX (IC50)
Type: cell-based

Nav 1.7, sequence (Q15858 whole entry): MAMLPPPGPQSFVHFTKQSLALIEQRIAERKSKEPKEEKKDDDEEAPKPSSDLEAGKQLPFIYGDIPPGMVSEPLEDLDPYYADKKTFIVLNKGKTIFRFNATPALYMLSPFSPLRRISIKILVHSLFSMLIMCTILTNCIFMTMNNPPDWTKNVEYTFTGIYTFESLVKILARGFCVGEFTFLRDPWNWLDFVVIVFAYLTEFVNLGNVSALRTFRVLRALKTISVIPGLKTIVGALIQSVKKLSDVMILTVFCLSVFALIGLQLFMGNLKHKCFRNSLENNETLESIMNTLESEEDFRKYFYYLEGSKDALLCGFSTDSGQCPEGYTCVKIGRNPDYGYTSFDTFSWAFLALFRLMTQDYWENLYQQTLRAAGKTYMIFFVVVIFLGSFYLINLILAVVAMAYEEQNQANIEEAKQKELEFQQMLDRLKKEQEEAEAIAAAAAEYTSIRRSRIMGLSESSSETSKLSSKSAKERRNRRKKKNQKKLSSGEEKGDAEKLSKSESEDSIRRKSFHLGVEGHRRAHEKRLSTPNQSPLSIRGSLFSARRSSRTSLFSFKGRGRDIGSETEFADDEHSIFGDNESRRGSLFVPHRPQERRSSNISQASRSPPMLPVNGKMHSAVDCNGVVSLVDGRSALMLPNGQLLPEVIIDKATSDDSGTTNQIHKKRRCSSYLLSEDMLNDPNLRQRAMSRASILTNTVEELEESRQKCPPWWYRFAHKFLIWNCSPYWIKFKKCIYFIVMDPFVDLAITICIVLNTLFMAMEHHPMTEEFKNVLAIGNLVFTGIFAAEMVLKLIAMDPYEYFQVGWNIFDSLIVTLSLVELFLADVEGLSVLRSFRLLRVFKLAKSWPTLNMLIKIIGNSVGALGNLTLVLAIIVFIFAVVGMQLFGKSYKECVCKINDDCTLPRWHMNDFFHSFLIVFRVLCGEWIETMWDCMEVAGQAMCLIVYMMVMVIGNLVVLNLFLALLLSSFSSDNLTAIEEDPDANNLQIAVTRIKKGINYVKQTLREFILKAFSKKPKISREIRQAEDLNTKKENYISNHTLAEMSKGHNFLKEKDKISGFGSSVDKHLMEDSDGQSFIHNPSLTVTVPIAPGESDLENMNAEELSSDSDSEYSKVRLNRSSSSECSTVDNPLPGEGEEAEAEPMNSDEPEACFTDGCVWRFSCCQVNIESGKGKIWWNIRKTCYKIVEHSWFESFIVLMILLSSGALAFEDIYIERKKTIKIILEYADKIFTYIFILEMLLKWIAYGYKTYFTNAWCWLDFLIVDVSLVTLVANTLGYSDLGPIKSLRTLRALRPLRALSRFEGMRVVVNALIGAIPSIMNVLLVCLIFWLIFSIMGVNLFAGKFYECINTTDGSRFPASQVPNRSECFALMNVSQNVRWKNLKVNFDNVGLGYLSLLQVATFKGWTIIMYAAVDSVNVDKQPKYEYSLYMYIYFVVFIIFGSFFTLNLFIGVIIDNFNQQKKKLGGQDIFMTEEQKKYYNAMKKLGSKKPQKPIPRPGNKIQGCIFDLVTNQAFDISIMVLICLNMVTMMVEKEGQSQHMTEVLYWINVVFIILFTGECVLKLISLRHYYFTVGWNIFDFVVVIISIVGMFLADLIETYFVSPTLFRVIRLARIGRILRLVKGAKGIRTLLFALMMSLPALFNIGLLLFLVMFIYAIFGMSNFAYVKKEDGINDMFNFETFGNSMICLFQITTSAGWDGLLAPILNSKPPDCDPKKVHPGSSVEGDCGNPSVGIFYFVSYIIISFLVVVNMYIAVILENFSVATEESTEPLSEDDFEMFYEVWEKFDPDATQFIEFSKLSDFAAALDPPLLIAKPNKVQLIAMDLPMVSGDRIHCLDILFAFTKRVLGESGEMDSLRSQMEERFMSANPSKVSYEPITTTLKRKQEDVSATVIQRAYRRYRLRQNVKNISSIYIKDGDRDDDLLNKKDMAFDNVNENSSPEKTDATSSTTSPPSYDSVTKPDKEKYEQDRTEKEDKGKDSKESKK

Compound: O=c1ccc2cc(S(=O)(=O)Nc3ccon3)ccc2n1-c1ccc(C(F)(F)F)cc1-c1cn[nH]c1 [Example 347, M-1-(2-(1H-pyrazol-4-yl)-4-(trifluoromethyl)phenyl)-N-(isoxazol-3-yl)-2-oxo-1,2-dihydroquinoline-6-sulfonamide]
- IC50: 6600 nM

Compound: COc1cc(-c2cccc(F)c2)c(Cl)cc1-n1c(=O)cc(C)c2cc(S(=O)(=O)Nc3ccon3)ccc21 [Example 348, P-1-(2-chloro-3′-fluoro-5-methoxy-[1,1′-biphenyl]-4-yl)-N-(isoxazol-3-yl)-4-methyl-2-oxo-1,2-dihydroquinoline-6-sulfonamide]
- IC50: 159 nM

Compound: COc1cc(-c2cccc(F)c2)c(Cl)cc1-n1c(=O)cc(C)c2cc(S(=O)(=O)Nc3ccon3)ccc21 [Example 349, M-1-(2-chloro-3′-fluoro-5-methoxy-[1,1′-biphenyl]-4-yl)-N-(isoxazol-3-yl)-4-methyl-2-oxo-1,2-dihydroquinoline-6-sulfonamide]
- IC50: 10600 nM

Compound: COc1cc(-c2cccc(Cl)c2)ccc1-n1c(=O)ccc2cc(S(=O)(=O)Nc3ccon3)ccc21 [Example 350, P-1-(3′-chloro-3-methoxy-[1,1′-biphenyl]-4-yl)-N-(isoxazol-3-yl)-2-oxo-1,2-dihydroquinoline-6-sulfonamide]
- IC50: 26 nM

Compound: COc1cc(-c2cccc(Cl)c2)ccc1-n1c(=O)ccc2cc(S(=O)(=O)Nc3ccon3)ccc21 [Example 351, M-1-(3′-chloro-3-methoxy-[1,1′-biphenyl]-4-yl)-N-(isoxazol-3-yl)-2-oxo-1,2-dihydroquinoline-6-sulfonamide]
- IC50: 5520 nM

Compound: COc1ccc(-c2ccnn2C)cc1-n1c(=O)ccc2cc(S(=O)(=O)Nc3ccon3)ccc21 [Example 385, N-3-isoxazolyl-1-(2-methoxy-5-(1-methyl-1H-pyrazol-5-yl)phenyl)-2-oxo-1,2-dihydro-6-quinolinesulfonamide]
- IC50: 6230 nM

Compound: N#CCOc1cc(-c2cccc(F)c2)c(F)cc1-n1c(=O)ccc2cc(S(=O)(=O)Nc3ccon3)ccc21 [Example 387, 1-(5-(cyanomethoxy)-2,3′-difluoro-[1,1′-biphenyl]-4-yl)-N-(isoxazol-3-yl)-2-oxo-1,2-dihydroquinoline-6-sulfonamide]
- IC50: 89 nM

Compound: COc1cc(-c2cccnc2)c(F)cc1-n1c(=O)ccc2cc(S(=O)(=O)Nc3ccon3)ccc21 [Example 404, 1-(5-fluoro-2-methoxy-4-(3-pyridinyl)phenyl)-N-3-isoxazolyl-2-oxo-1,2-dihydro-6-quinolinesulfonamide]
- IC50 (in-vitro PatchXpress (PX)): 4300 nM

Compound: COc1cc(-c2cnn(C)c2)c(F)cc1-n1c(=O)ccc2cc(S(=O)(=O)Nc3ccon3)ccc21 [Example 405, 1-(5-fluoro-2-methoxy-4-(1-methyl-1H-pyrazol-4-yl)phenyl)-N-3-isoxazolyl-2-oxo-1,2-dihydro-6-quinolinesulfonamide]
- IC50 (in-vitro PatchXpress (PX)): 14600 nM

Compound: COc1cc(N2CC(F)(F)C2)c(F)cc1-n1c(=O)ccc2cc(S(=O)(=O)Nc3ccon3)ccc21 [Example 406, 1-(4-(3,3-difluoro-1-azetidinyl)-5-fluoro-2-methoxyphenyl)-N-3-isoxazolyl-2-oxo-1,2-dihydro-6-quinolinesulfonamide]
- IC50 (in-vitro PatchXpress (PX)): 1000 nM

Compound: COc1cc(-c2cncc(Cl)c2)c(F)cc1-n1c(=O)ccc2cc(S(=O)(=O)Nc3ccon3)ccc21 [Example 407, 1-(4-(5-chloro-3-pyridinyl)-5-fluoro-2-methoxyphenyl)-N-3-isoxazolyl-2-oxo-1,2-dihydro-6-quinolinesulfonamide]
- IC50 (in-vitro PatchXpress (PX)): 158 nM

Compound: COc1nc(-c2cc(F)cc(F)c2)c(Cl)cc1-n1c(=O)ccc2cc(S(=O)(=O)Nc3ccon3)ccc21 [Example 447, 1-(5-chloro-6-(3,5-difluorophenyl)-2-methoxypyridin-3-yl)-N-(isoxazol-3-yl)-2-oxo-1,2-dihydroquinoline-6-sulfonamide]
- IC50 (in-vitro PatchXpress (PX)): 59 nM

Compound: COc1nc(-c2ccc(Cl)c(C)c2)c(Cl)cc1-n1c(=O)ccc2cc(S(=O)(=O)Nc3ccon3)ccc21 [Example 448, 1-(5-chloro-6-(4-chloro-3-methylphenyl)-2-methoxypyridin-3-yl)-N-(isoxazol-3-yl)-2-oxo-1,2-dihydroquinoline-6-sulfonamide]
- IC50 (in-vitro PatchXpress (PX)): 115 nM

Compound: COc1nc(-c2cc(F)cc(Cl)c2)c(Cl)cc1-n1c(=O)ccc2cc(S(=O)(=O)Nc3ccon3)ccc21 [Example 449, 1-(5-chloro-6-(3-chloro-5-fluorophenyl)-2-methoxypyridin-3-yl)-N-(isoxazol-3-yl)-2-oxo-1,2-dihydroquinoline-6-sulfonamide]
- IC50 (in-vitro PatchXpress (PX)): 85 nM

Compound: COc1ccc(-c2cccc(F)c2)cc1-n1c(=O)ccc2cc(S(=O)(=O)Nc3ccon3)ccc21 [Example 482, 1-(3′-fluoro-4-methoxy-3-biphenylyl)-N-3-isoxazolyl-2-oxo-1,2-dihydro-6-quinolinesulfonamide]
- IC50: 80 nM

Compound: COc1ccc(-c2cncc(F)c2)cc1-n1c(=O)ccc2cc(S(=O)(=O)Nc3ccon3)ccc21 [Example 485, 1-(5-(5-fluoro-3-pyridinyl)-2-methoxyphenyl)-N-3-isoxazolyl-2-oxo-1,2-dihydro-6-quinolinesulfonamide]
- IC50: 690 nM

Compound: COc1ccc(-c2cnn(C)c2)cc1-n1c(=O)ccc2cc(S(=O)(=O)Nc3ccon3)ccc21 [Example 486, N-3-isoxazolyl-1-(2-methoxy-5-(1-methyl-1H-pyrazol-4-yl)phenyl)-2-oxo-1,2-dihydro-6-quinolinesulfonamide]
- IC50: 27100 nM

Compound: COc1ccc(-c2cc(F)cnc2OC)cc1-n1c(=O)ccc2cc(S(=O)(=O)Nc3ccon3)ccc21 [Example 488, 1-(5-(5-fluoro-2-methoxy-3-pyridinyl)-2-methoxyphenyl)-N-3-isoxazolyl-2-oxo-1,2-dihydro-6-quinolinesulfonamide]
- IC50: 299 nM

Compound: COc1ccc(-c2cncc(C#N)c2)cc1-n1c(=O)ccc2cc(S(=O)(=O)Nc3ccon3)ccc21 [Example 491, 1-(5-(5-cyano-3-pyridinyl)-2-methoxyphenyl)-N-3-isoxazolyl-2-oxo-1,2-dihydro-6-quinolinesulfonamide]
- IC50: 2070 nM

Compound: COc1ccc(-c2cncc(C(F)(F)F)c2)cc1-n1c(=O)ccc2cc(S(=O)(=O)Nc3ccon3)ccc21 [Example 492, N-3-isoxazolyl-1-(2-methoxy-5-(5-(trifluoromethyl)-3-pyridinyl)phenyl)-2-oxo-1,2-dihydro-6-quinolinesulfonamide]
- IC50: 298 nM

Compound: COc1ccc(-c2cccc(C#N)c2)cc1-n1c(=O)ccc2cc(S(=O)(=O)Nc3ccon3)ccc21 [Example 493, 1-(3′-cyano-4-methoxy-3-biphenylyl)-N-3-isoxazolyl-2-oxo-1,2-dihydro-6-quinolinesulfonamide]
- IC50: 418 nM

Compound: COc1ccc(-c2cncc(Cl)c2)cc1-n1c(=O)ccc2cc(S(=O)(=O)Nc3ccon3)ccc21 [Example 494, 1-(5-(5-chloro-3-pyridinyl)-2-methoxyphenyl)-N-3-isoxazolyl-2-oxo-1,2-dihydro-6-quinolinesulfonamide]
- IC50: 682 nM

Compound: COc1ccc(-c2cccnc2F)cc1-n1c(=O)ccc2cc(S(=O)(=O)Nc3ccon3)ccc21 [Example 495, 1-(5-(2-fluoro-3-pyridinyl)-2-methoxyphenyl)-N-3-isoxazolyl-2-oxo-1,2-dihydro-6-quinolinesulfonamide]
- IC50: 2450 nM

Compound: COc1ccc(-c2ccnc(F)c2)cc1-n1c(=O)ccc2cc(S(=O)(=O)Nc3ccon3)ccc21 [Example 496, 1-(5-(2-fluoro-4-pyridinyl)-2-methoxyphenyl)-N-3-isoxazolyl-2-oxo-1,2-dihydro-6-quinolinesulfonamide]
- IC50: 2770 nM

Compound: COc1cc(-c2ccc(C)nc2)c(F)cc1-n1c(=O)ccc2cc(S(=O)(=O)Nc3ccon3)ccc21 [Example 500, 1-(5-fluoro-2-methoxy-4-(6-methyl-3-pyridinyl)phenyl)-N-3-isoxazolyl-2-oxo-1,2-dihydro-6-quinolinesulfonamide]
- IC50 (in-vitro PatchXpress (PX)): 2840 nM

Compound: COc1cc(-c2ccncc2)c(F)cc1-n1c(=O)ccc2cc(S(=O)(=O)Nc3ccon3)ccc21 [Example 505, 1-(5-fluoro-2-methoxy-4-(4-pyridinyl)phenyl)-N-3-isoxazolyl-2-oxo-1,2-dihydro-6-quinolinesulfonamide]
- IC50 (in-vitro PatchXpress (PX)): 1800 nM

Compound: COc1cc(N2CC(C(F)(F)F)C2)c(F)cc1-n1c(=O)ccc2cc(S(=O)(=O)Nc3ccon3)ccc21 [Example 530, 1-(5-fluoro-2-methoxy-4-(3-(trifluoromethyl)-1-azetidinyl)phenyl)-N-3-isoxazolyl-2-oxo-1,2-dihydro-6-quinolinesulfonamide]
- IC50 (in-vitro PatchXpress (PX)): 495 nM

Compound: COc1cc(-c2cc(F)cnc2OC)c(F)cc1-n1c(=O)ccc2cc(S(=O)(=O)Nc3ccon3)ccc21 [Example 531, 1-(5-fluoro-4-(5-fluoro-2-methoxy-3-pyridinyl)-2-methoxyphenyl)-N-3-isoxazolyl-2-oxo-1,2-dihydro-6-quinolinesulfonamide]
- IC50 (in-vitro PatchXpress (PX)): 342 nM

Compound: COc1cc(-c2cnc(C)c(Cl)c2)c(F)cc1-n1c(=O)ccc2cc(S(=O)(=O)Nc3ccon3)ccc21 [Example 532, 1-(4-(5-chloro-6-methyl-3-pyridinyl)-5-fluoro-2-methoxyphenyl)-N-3-isoxazolyl-2-oxo-1,2-dihydro-6-quinolinesulfonamide]
- IC50 (in-vitro PatchXpress (PX)): 282 nM

Compound: COc1cc(-c2cccc(F)c2)c(Cl)cc1-n1c(=O)cc(C)c2cc(S(=O)(=O)Nc3ccon3)ccc21 [Example 567, 1-(2-chloro-3′-fluoro-5-methoxy-4-biphenylyl)-N-3-isoxazolyl-4-methyl-2-oxo-1,2-dihydro-6-quinolinesulfonamide]
- IC50: 162 nM

Compound: O=c1ccc2cc(S(=O)(=O)Nc3ccon3)ccc2n1-c1ccc(-c2cccc(C(F)(F)F)c2)cc1 [Example 591, N-3-isoxazolyl-2-oxo-1-(3′-(trifluoromethyl)-4-biphenylyl)-1,2-dihydro-6-quinolinesulfonamide]
- IC50 (in-vitro Nav 1.7 PX data): 732 nM

Compound: COc1cc(-c2ccccn2)c(F)cc1-n1c(=O)ccc2cc(S(=O)(=O)Nc3ccon3)ccc21 [Example 594, 1-(5-fluoro-2-methoxy-4-(2-pyridinyl)phenyl)-N-3-isoxazolyl-2-oxo-1,2-dihydro-6-quinolinesulfonamide]
- IC50 (in-vitro Nav 1.7 PX data): 1660 nM

Compound: COc1cc(-c2cccc(F)c2)ncc1-n1c(=O)ccc2cc(S(=O)(=O)Nc3ccon3)ccc21 [Example 601, 1-(6-(3-fluorophenyl)-4-methoxy-3-pyridinyl)-N-3-isoxazolyl-2-oxo-1,2-dihydro-6-quinolinesulfonamide]
- IC50 (in-vitro Nav 1.7 PX data): 1770 nM
